From EPA's ToxRefDB 2

Experiments:
rat [1] = details: Combined chronic toxicity/carcinogenicity, sprague dawley, Oral, Feed, dose end: 2 year, group: systemic
dog [2] = details: Subchronic oral toxicity in nonrodent, beagle, Feed, dose end: 90 day, group: systemic
rabbit [3] = details: Prenatal developmental toxicity study, new zealand white, Oral, Gavage/Intubation, dose end: 19 GD
rat [4] = details: Prenatal developmental toxicity study, sprague dawley, Oral, Gavage/Intubation, dose end: 16 GD
rat [5] = details: Prenatal developmental toxicity study, sprague dawley, Oral, Gavage/Intubation, dose end: 16 GD; remark: listed apart in the source
rat [6] = details: Subchronic oral toxicity in rodents, sprague dawley, Feed, dose end: 90 day, group: systemic
rat [7] = details: Multigenerational reproductive toxicity study, other, Oral, Feed, dose end: 2 generation
rat [8] = details: Prenatal developmental toxicity study, sprague dawley, Oral, Feed, dose end: 16 GD
rat [9] = details: Prenatal developmental toxicity study, other, Oral, Gavage/Intubation, dose end: 16 GD
rat [10] = details: Multigenerational reproductive toxicity study, sprague dawley, Oral, Feed, dose end: 2 generation
rabbit [11] = details: Prenatal developmental toxicity study, new zealand white, Oral, Gavage/Intubation, dose end: 19 GD; remark: listed apart in the source
mouse [12] = details: Combined chronic toxicity/carcinogenicity; cd1; Oral; Feed; dose end: 104 week; group: systemic; systemic / in life observation / body weight / body weight gain + systemic / in life observation / clinical signs / lacrimation + systemic…
rat [13] = details: Combined chronic toxicity/carcinogenicity, sprague dawley, Oral, Feed, dose end: 104 week, group: systemic
dog [14] = details: Chronic toxicity, beagle, Oral, Feed, dose end: 52 week, group: systemic
mouse [15] = details: Prenatal developmental toxicity study, other, Oral, Gavage/Intubation, dose end: 15 GD
[16] = systemic / organ weight / liver / relative to body weight + systemic / pathology microscopic / liver / hypertrophy
[17] = systemic / organ weight / liver / relative to body weight + systemic / pathology microscopic / liver / hypertrophy + systemic / clinical …
[18] = systemic / pathology microscopic / stomach / hyperplasia
[19] = group: developmental, systemic / in life observation / body weight / fetal weight
[20] = group: maternal, reproductive / reproductive performance / aborted / aborted + reproductive / reproductive performance / resorptions / resorptions + systemic…
[21] = group: developmental, developmental / developmental malformation / kidney / small renal papilla + developmental / developmental malformation / ureter / distended
[22] = group: developmental, developmental / developmental malformation / kidney / small renal papilla + developmental / developmental malformation / ureter / distended…
[23] = group: maternal, systemic / in life observation / body weight / body weight gain + systemic / in life observation / food consumption / food consumption + …
[24] = group: developmental, developmental / developmental malformation / kidney / absent renal papilla + developmental / developmental malformation / ureter / …
[25] = group: maternal, systemic / organ weight / liver / relative to body weight
[26] = group: maternal, systemic / organ weight / liver / relative to body weight + systemic / in life observation / body weight / body weight gain + systemic / in …
[27] = group: offspring, developmental / offspring survival late / viability index / viability index
[28] = group: offspring, developmental / offspring survival late / viability index / viability index + systemic / in life observation / body weight / offspring (pup…
[29] = group: parental, systemic / pathology microscopic / liver / hypertrophy + systemic / in life observation / body weight / body weight + systemic / pathology …
[30] = group: parental, systemic / pathology microscopic / liver / hypertrophy + systemic / in life observation / mortality / mortality
[31] = group: reproductive, reproductive / reproductive performance / gestational length / gestational length
[32] = group: reproductive, reproductive / reproductive performance / gestational length / gestational length + reproductive / offspring survival early / litter size / …
[33] = group: developmental, developmental / developmental malformation / bone / extra ossification site + developmental / developmental malformation / bone / incomplete…
[34] = group: maternal, reproductive / reproductive performance / resorptions / resorptions + systemic / in life observation / food consumption / food consumption…
[35] = group: developmental, developmental / developmental malformation / bone / incomplete ossification + developmental / developmental malformation / bone / manus …
[36] = group: maternal, systemic / in life observation / body weight / body weight gain + systemic / in life observation / food consumption / food consumption
[37] = group: maternal, systemic / in life observation / food consumption / food consumption
[38] = group: offspring, systemic / in life observation / body weight / offspring (pup) weight gain + developmental / offspring survival late / [other] / [other]
[39] = group: offspring, systemic / in life observation / body weight / offspring (pup) weight gain + developmental / offspring survival late / [other] / [other] + …
[40] = group: parental, systemic / pathology microscopic / eye / cataract + systemic / in life observation / body weight / body weight gain + systemic / in life …
[41] = group: parental, systemic / pathology microscopic / eye / cataract + systemic / in life observation / clinical signs / tongue ulcers
[42] = group: developmental, developmental / developmental malformation / bone / incomplete ossification
[43] = group: developmental, developmental / developmental malformation / bone / incomplete ossification + developmental / developmental malformation / bone / full …
[44] = systemic / pathology microscopic / eye / opacity
[45] = systemic / pathology microscopic / eye / opacity + systemic / organ weight / kidney / absolute + systemic / organ weight / kidney / relative…
[46] = group: developmental, developmental / developmental malformation / bone / [other] + developmental / developmental malformation / eye / open eye + developmental / …
[47] = group: developmental, developmental / developmental malformation / bone / [other] + developmental / developmental malformation / heart / defect a-v septum + …
[48] = group: maternal, systemic / in life observation / clinical signs / abnormal posture + systemic / in life observation / clinical signs / drooping eyelids (…
[49] = group: maternal, systemic / in life observation / clinical signs / piloerection + systemic / in life observation / clinical signs / respiration (rales) + …

## C[Si](Cn1cncn1)(c1ccc(F)cc1)c1ccc(F)cc1 [Flusilazole]
Rat [1]; [16]
  LEL: 2.6 mg/kg/day
  LOAEL: 2.6 mg/kg/day
Rat [1]; [17]
  NEL: 0.53 mg/kg/day
  NOAEL: 0.53 mg/kg/day
Dog [2]; systemic / organ weight / liver / absolute + systemic / organ weight / liver / relative to body weight + systemic / clinical chemistry / …
  NOAEL: 0.9 mg/kg/day
Dog [2]; systemic / organ weight / liver / absolute + systemic / organ weight / liver / relative to body weight + systemic / pathology microscopic / …
  LOAEL: 4.3 mg/kg/day
Dog [2]; [18]
  LEL: 0.9 mg/kg/day
  NEL: < 0.9 mg/kg/day
Rabbit [3]; [19]
  LEL: 35 mg/kg/day
  LOAEL: 35 mg/kg/day
  NEL: 12 mg/kg/day
  NOAEL: 12 mg/kg/day
Rabbit [3]; [20]
  LEL: 35 mg/kg/day
  LOAEL: 35 mg/kg/day
  NEL: 12 mg/kg/day
  NOAEL: 12 mg/kg/day
Rat [4]; [21]
  LEL: 10 mg/kg/day
  LOAEL: 10 mg/kg/day
Rat [4]; [22]
  NEL: 2 mg/kg/day
  NOAEL: 2 mg/kg/day
Rat [4]; [23]
  LEL: 100 mg/kg/day
  LOAEL: 100 mg/kg/day
  NEL: 10 mg/kg/day
  NOAEL: 10 mg/kg/day
Rat [5]; [24]
  LEL: 0.4 mg/kg/day
  LOAEL: 0.4 mg/kg/day
  NEL: < 0.4 mg/kg/day
  NOAEL: < 0.4 mg/kg/day
Rat [5]; [25]
  LEL: 50 mg/kg/day
  LOAEL: 50 mg/kg/day
Rat [5]; [26]
  NEL: 10 mg/kg/day
  NOAEL: 10 mg/kg/day
Rat [6]; systemic / clinical chemistry / cholesterol / cholesterol + systemic / pathology microscopic / urinary bladder / hyperplasia
  LOAEL: 27 mg/kg/day
Rat [6]; systemic / clinical chemistry / cholesterol / cholesterol + systemic / pathology microscopic / urinary bladder / hyperplasia + systemic / …
  NOAEL: 9 mg/kg/day
Rat [6]; systemic / in life observation / body weight / body weight
  LEL: 11 mg/kg/day
Rat [6]; systemic / in life observation / body weight / body weight + systemic / clinical chemistry / cholesterol / cholesterol + systemic / organ …
  NEL: 2 mg/kg/day
Rat [7]; [27]
  NEL: 3.5 mg/kg/day
  NOAEL: 3.5 mg/kg/day
Rat [7]; [28]
  LEL: 17.5 mg/kg/day
  LOAEL: 17.5 mg/kg/day
Rat [7]; [29]
  LEL: 3.5 mg/kg/day
  LOAEL: 3.5 mg/kg/day
Rat [7]; [30]
  NEL: 0.35 mg/kg/day
  NOAEL: 0.35 mg/kg/day
Rat [7]; [31]
  NEL: 3.5 mg/kg/day
  NOAEL: 3.5 mg/kg/day
Rat [7]; [32]
  LEL: 17.5 mg/kg/day
  LOAEL: 17.5 mg/kg/day
Rat [8]; [33]
  LOAEL: 300 ppm
  NEL: 50 ppm
  NOAEL: 100 ppm
Rat [8]; group: developmental, developmental / developmental malformation / bone / extra ossification site + developmental / developmental malformation / bone / unossified
  LEL: 100 ppm
Rat [8]; group: maternal, reproductive / reproductive performance / resorptions / resorptions + systemic / in life observation / food consumption / food consumption
  LOAEL: 300 ppm
Rat [8]; [34]
  LEL: 300 ppm
  NEL: 100 ppm
  NOAEL: 100 ppm

## [Br-].[Br-].c1cc[n+]2c(c1)-c1cccc[n+]1CC2 [Diquat dibromide]
Rat [9]; [35]
  LEL: 40 mg/kg/day
  LOAEL: 40 mg/kg/day
  NEL: 12 mg/kg/day
  NOAEL: 12 mg/kg/day
Rat [9]; [36]
  LOAEL: 12 mg/kg/day
Rat [9]; [23]
  NOAEL: 4 mg/kg/day
Rat [9]; [37]
  LEL: 4 mg/kg/day
  NEL: < 4 mg/kg/day
Rat [10]; [38]
  NEL: 4 mg/kg/day
  NOAEL: 4 mg/kg/day
Rat [10]; [39]
  LEL: 12 mg/kg/day
  LOAEL: 12 mg/kg/day
Rat [10]; [40]
  NEL: 0.8 mg/kg/day
  NOAEL: 0.8 mg/kg/day
Rat [10]; [41]
  LEL: 4 mg/kg/day
  LOAEL: 4 mg/kg/day
Rabbit [11]; [42]
  LEL: 1 mg/kg/day
  NEL: < 1 mg/kg/day
Rabbit [11]; [43]
  LOAEL: 10 mg/kg/day
  NOAEL: 3 mg/kg/day
Rabbit [11]; [36]
  LEL: 3 mg/kg/day
  LOAEL: 3 mg/kg/day
Rabbit [11]; [23]
  NEL: 1 mg/kg/day
  NOAEL: 1 mg/kg/day
Mouse [12]
  LEL: 12 mg/kg/day
  LOAEL: 12 mg/kg/day
  NEL: 3.56 mg/kg/day
  NOAEL: 3.56 mg/kg/day
Rat [13]; systemic / pathology microscopic / eye / cataract
  LOAEL: 0.58 mg/kg/day
Rat [13]; systemic / pathology microscopic / eye / cataract + systemic / in life observation / body weight / body weight gain + systemic / pathology …
  NOAEL: 0.19 mg/kg/day
Rat [13]; [44]
  LEL: 0.24 mg/kg/day
  NEL: < 0.24 mg/kg/day
Dog [14]; systemic / pathology microscopic / eye / opacity + systemic / organ weight / epididymis / relative to body weight
  LOAEL: 2.5 mg/kg/day
Dog [14]; systemic / pathology microscopic / eye / opacity + systemic / organ weight / epididymis / relative to body weight + systemic / pathology …
  LEL: 2.5 mg/kg/day
Dog [14]; [45]
  NEL: 0.5 mg/kg/day
  NOAEL: 0.5 mg/kg/day
Mouse [15]; [46]
  LOAEL: 2 mg/kg/day
  NOAEL: 1 mg/kg/day
Mouse [15]; [47]
  LEL: 1 mg/kg/day
  NEL: < 1 mg/kg/day
Mouse [15]; [48]
  LOAEL: 2 mg/kg/day
  NOAEL: 1 mg/kg/day
Mouse [15]; [49]
  LEL: 1 mg/kg/day
  NEL: < 1 mg/kg/day
